According to PubChem BioAssay AID179 (DTP/NCI, 2004):
Active and inactive are the calls of the source.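 The calls were made as follows: active = compounds giving half or more protection of infected cells from virus-caused growth loss, again on retest; inactive = the rest.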

Test system: CEM cells HIV-1 protection, formazan growth assay
Experiment: NCI AIDS Antiviral Assay
Settings: for IC50: measured here: growth of uninfected CEM cells
Outline: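 CEM (human) cells, HIV-1 infected vs uninfected, 5-point dosing, formazan growth read-out. Retest threshold 50% protection.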

| Compound | EC50 [µM] | IC50 [µM] | outcome |
| --- | --- | --- | --- |
| CCOC(=O)C(=CNc1ccc(NC2=NCC(C)S2)cc1)C(=O)OCC (centres undefined) | > 200 | 3.24 |  |
| CC(=O)C1=C(C)N2C(=NC3=C(CCc4ccccc43)C2c2ccc(F)cc2)S1 (centres undefined) | > 200 | 178 |  |
| CC1(C)C2CCC13CS(=O)(=O)N1O[C@]13C(=O)O2 (some centres undefined) | > 195 | > 195 |  |
| CCCCNS(=O)(=O)c1ccc(-c2c3nc(c(-c4ccc(S(=O)(=O)NCCCC)cc4)c4ccc([nH]4)c(-c4ccc(S(=O)(=O)NCCCC)cc4)c4nc(c(-c5ccc(S(=O)(=O)NCCCC)cc5)c5ccc2[nH]5)C=C4)C=C3)cc1 | > 200 | > 200 |  |
| CN1CCC2(CC1)C(=NC1CCCCC1)NC(=O)N2c1ccccc1 | > 200 | > 200 |  |
| O=C1NC(=S)S/C1=C\c1ccc2c(c1)OCO2 | > 200 | 85.1 |  |
| O=c1/c(=C\c2ccccc2Cl)sc2n1CCN=2 |  |  | inactive |
| O=[N+]([O-])/C(C(Cl)=C(Cl)Cl)=C(/Cl)Sc1ccccc1 | > 200 | 1.23 |  |
| O=C1C=CC(=O)C2C1C1CC3C=CC312 (centres undefined) | > 1350 | > 1350 |  |
| CCC(C)[N-]c1cccc[n+]1[O-].CCC(C)[N-]c1cccc[n+]1[O-].[Cu+2] (centres undefined) | > 200 | 83.2 |  |
| Cc1cc(N=Nc2ccccc2)ccc1NCS(=O)(=O)O | > 200 | 117 |  |
| Cn1ncc2c(c1=O)Nc1ccccc1S2(=O)=O | > 112 | > 112 |  |
| NC(=S)N/N=C/C(F)(F)F | > 1450 | 79.4 |  |
| O=C(Nc1ccc(Cl)cc1)c1cc(S(=O)(=O)N2CCNNC2=O)c(S)cc1Cl | 9.77 | 129 |  |
| O=c1[nH]nc(Cc2ccccc2)n1/N=C\CC/C=N\n1c(Cc2ccccc2)n[nH]c1=O | > 200 | 37.2 |  |
| Cc1cc2c(c(=O)[nH]1)C(=O)NC2=O | > 813 | 468 |  |
| OC1CN=C2C=CC=CN2C1 (centres undefined) | > 200 | > 200 |  |
| CC(=O)NC(CS/N=N/c1nc[nH]c1C(N)=O)C(=O)O (centres undefined) | > 200 | 0.38 |  |
| CCCCCCCCCCCCCCCCCCNc1ccn(C2OC(COP(=O)(O)OCC(COP(=O)(O)OCC3OC(n4cc(C)c(=O)[nH]c4=O)CC3N=[N+]=[N-])OC(=O)CCCCCCCCCCCCCCC)C(O)C2O)c(=O)n1 (centres undefined) | 11.2 | 69.2 |  |
| CCOC(=O)C1([Se]c2ccccc2)CCCC1=O (centres undefined) | > 219 | 20.4 |  |
| N#Cc1cc(C#N)c(N)nc1N | > 200 | > 200 |  |
| COc1ccc2c(c1)CCC1=CC3(CCC12C)SCCS3 (centres undefined) | > 58.9 | 10.2 |  |
| NC(Cc1ccc[se]1)C(=O)O (centres undefined) | > 200 | > 200 |  |

| Compound | EC50 [µM] | IC50 [µM] | outcome |
| --- | --- | --- | --- |
| Cc1noc2c1NC(=O)OC(C)(C)C2 | > 447 | > 447 |  |
| COc1cc(N=Nc2cc(NC(C)=O)c(N=Nc3ccc(S(=O)(=O)O)cc3)cc2S(=O)(=O)O)c(C)cc1N=Nc1cc(OC)c(NC(=O)c2ccc(N)cc2)cc1C | 4.57 | 191 |  |
| CCOc1c(OC)cc(-c2nc3n(n2)C(=O)C(CC)S3)cc1OC (centres undefined) | > 200 | > 200 |  |
| COc1ccc(NC2C(=O)C3(C)CCC2C3(C)C)cc1 (centres undefined) |  |  | inactive |
| C=CCn1c(=O)c(C(=O)NC(=O)OCC)cn(C2CCCCC2)c1=O | > 145 | > 145 |  |
| NC(=O)C12C3C4C1C1C2C3C41C(N)=O (centres undefined) | > 70.8 | > 70.8 |  |
| C=C=C[P+](c1ccccc1)(c1ccccc1)c1ccccc1 | > 155 | 3.24 |  |
| Cn1c(=O)c(-c2ccccc2)c(N=[N+]=[N-])c2ccccc21 | > 200 | 135 |  |
| Cc1cc(C)nc(NS(=O)(=O)c2ccc(Nc3c4ccc(Cl)cc4nc4ncccc34)cc2)n1 |  |  | inactive |
| O=C(Nc1nc2ccc([N+](=O)[O-])cc2s1)C(=O)C(C(=O)c1ccccc1F)C1OC(=O)c2ccccc21 (centres undefined) | > 132 | 18.2 |  |
| C=CN1C(=O)[C@H](Oc2ccccc2)[C@@H]1c1ccccc1 | > 135 | 63.1 |  |
| N#C[C@](CO)(NC(=O)OCc1ccccc1)C(F)F | > 200 | > 200 |  |
| CCOC(=O)C1=NN(c2ccc(Cl)cc2)C2=CC(C)=NN(C)C(=S)N21 | > 200 | > 200 |  |
| O=C1CC2C3C1N(c1ccc(Cl)cc1)C1(Nc4ccc(Cl)cc4)C(=O)CC(C31)N2c1ccc(Cl)cc1 (centres undefined) | > 200 | 33.9 |  |
| COc1ccc2c(c1OC)OC1CNc3cc(C)c(C)cc3N=C1C2 (centres undefined) | 1.35 | 4.57 |  |
| CN1C(=O)NC2ON=C(c3ccccc3)C2C1=O (centres undefined) | > 200 | 53.7 |  |
| CC[C@@]1(OC(=O)C(N)CCC(=O)O)C(=O)OCc2c1cc1n(c2=O)Cc2cc3ccccc3nc2-1 (some centres undefined) | > 10 | 0.0145 |  |
| CC(C)(C)[Si](C)(C)OCC1OC(n2ccc(=O)[nH]c2=O)C(O[Si](C)(C)C(C)(C)C)C1(CC#N)Sc1ccccc1 (centres undefined) | > 200 | 10.7 |  |
| CCOCCOCCOCc1nc(C#N)c(N)o1 | > 200 | > 200 |  |
| N#Cc1c(N2CCCC2)ncn(-c2ccccc2)c1=S | > 200 | > 200 |  |
| CCN(CC)C(=S)/N=C(\SC(=S)N(CC)CC)c1ccccc1 | > 132 | 52.5 |  |
| O=C(N[C@@H](CSSC[C@H](NC(=O)OCc1ccccc1)C(=O)O)C(=O)O)OCc1ccccc1 | > 200 | 74.1 |  |
| Cc1cc(C)nc(NS(=O)(=O)c2ccc(NC(=O)c3cccnc3Nc3cccc(Cl)c3)cc2)n1 |  |  | inactive |

| Compound | EC50 [µM] | IC50 [µM] | outcome |
| --- | --- | --- | --- |
| CCCCCCCCC#CCCCCCCCCCC[C@@H]1C(=O)O[C@H](C)[C@@H]1O (tested in a mixture with another compound) | > 200 | 35.5 |  |
| COc1cc(CC(=O)c2cc3c(cc2-c2ccccc2)OCO3)cc(OC)c1OC | > 89.1 | 24 |  |
| O=C1CCC(=O)c2ccccc2N1 | > 1020 | > 1020 |  |
| CC(=O)OC1c2ccccc2CCCCCCC12OCCO2 (centres undefined) | > 200 | 105 |  |
| CCc1nc2ccc(N=Nc3c(O)ccc4ccccc34)cc2[nH]1 | > 58.9 | 24.5 |  |
| COc1cc2cc(C(=O)N3CC(CCl)c4ccc([N+](C)(C)Cc5ccccc5[N+](=O)[O-])cc43)[nH]c2c(OC)c1OC (centres undefined) | > 20 | 2.24 |  |
| CCC1=C(CC2NCCc3ccccc32)CC2c3cc(OC)c(OC)cc3CCN2C1 (centres undefined) |  |  | inactive |
| O=C1c2c(F)c(F)c(F)c(F)c2SC2=Nc3cccc4cccc(c34)N12 | > 200 | 1 |  |
| CSc1c(C(C)=O)c(O)n(-c2ccc(Cl)cc2)c(=O)c1C#N | 35.5 | 36.3 |  |
| O=C1C2CCC(C2)C12CC1(c3ccccc3)C(=O)c3ccccc3N1O2 (centres undefined) | > 28.8 | 27.5 |  |
| C[C@@H]1CN2SN1C[C@@H]2C | > 1740 | > 1740 |  |
| COc1ccc(C2ON(c3ccccn3)CC=C2C)cc1 (centres undefined) | > 91.2 | 83.2 |  |
| CCOC(=O)c1cn(C)c2c1C(O)=C(C(=O)OC)CC(=O)N2 | > 234 | 178 |  |
| Clc1ccnc2c1ccc1c(Cl)ccnc12 | > 75.9 | 13.8 |  |
| N#C/C(=C\c1ccc(O)c(O)c1)C(=O)c1ccc(O)c(O)c1 | > 200 | 51.3 |  |
| C=C(CC1CCCS(=O)(=O)C1)S(=O)(=O)c1ccc(C)cc1 (centres undefined) | > 200 | > 200 |  |
| NC(CS)=NC1CCCCC1 | > 200 | 107 |  |
| COc1ccc(NC(=O)CC/C(CC(=O)c2ccco2)=N/NC(=O)C(N)=O)cc1 | > 25.1 | > 25.1 |  |
| COC(=O)c1ccccc1C1CN=NC12Cc1cc(C)cc(C)c1C2=O (centres undefined) |  |  | inactive |
| CC1CCC23COC(=O)C2=CCCC3C1(C)CC/C(=C/CO)CO (centres undefined) |  |  | inactive |
| COc1ccc(/C(=C\c2cc(OC)c(OC)cc2[N+](=O)[O-])C(=O)O)cc1 |  |  | inactive |
| CC(C)Oc1cc2c(c3oc(=O)cc(-c4ccccc4)c13)C(=O)[C@H](C)[C@@H](C)O2 | > 200 | 51.3 |  |
| O=C(O)C(CS)N=c1c2ccccc2n(O)c2ccccc12 (centres undefined) |  |  | inactive |

| Compound | EC50 [µM] | IC50 [µM] | outcome |
| --- | --- | --- | --- |
| COc1ccc(C(CC(=O)O)CC(=O)O)cc1[N+](=O)[O-] | > 200 | > 200 |  |
| O=C1N=C2C=CC=CN2CC1O (centres undefined) | > 200 | > 200 |  |
| CC(C)N=C=NC(C)C | > 380 | > 380 |  |
| N#CC1(OC2CCCCO2)Cc2ccccc2C1 (centres undefined) | > 200 | > 200 |  |
| COc1cc2c(cc1O)C1C(O2)c2c(OC)cc3c(c2OC1(C)C)CCC(C)(C)O3 (centres undefined) | > 200 | 32.4 |  |
| CCCCC1C(=O)N2[C@H](OC[C@@H]2C(C)C)O[C@@H]1C (some centres undefined) | > 977 | 501 |  |
| COC(=O)C1(Cc2cccc(Cl)c2)CCCCCCN1C(=O)c1ccccc1 (centres undefined) | > 112 | 20.4 |  |
| O=C1Sc2ccc(Br)cc2C(=O)N2CSCC12 (centres undefined) | > 200 | > 200 |  |
| Cc1ccc(-c2c(C#N)c(-c3ccccc3)n(NS(=O)(=O)c3ccccc3)c(=O)c2C#N)cc1 | > 200 | 28.8 |  |
| CN1C(=O)N(C)C(O)C(Cl)(Cl)C1=O (centres undefined) | > 200 | > 200 |  |
| Cc1cccc2c1c(=O)c1c(O)c3c(cc1n2C)OC(C)(C)C=C3 | > 200 | 87.1 |  |
| CCC1c2cc3n(c(=O)c2COC1O)Cc1c-3nc2ccccc2c1Cl (centres undefined) | > 10 | 6.31 |  |
| S=C(N/N=C/c1ccccn1)N1CCCCC1 | > 0.2 | 0.011 |  |
| COC(=O)/N=c1\cc(N2CC=CCC2)nc(N)n1O | > 200 | > 200 |  |
| O=C(O)/C=C/c1ccc(Oc2ccccc2C(=O)O)o1 | > 49 | > 49 |  |
| CCCCC(CC)COS(=O)(=O)O (centres undefined) | 145 | > 200 |  |
| Cc1c(C(=O)C/C(=N/NC(=O)c2ccccc2O)C(=O)Nc2ccccc2C(C)C)[n+](=O)c2ccccc2n1[O-] | > 6.92 | > 6.92 |  |
| Cc1c(Cl)cccc1Nc1ncccc1C(=O)OCC(O)CO (centres undefined) | > 200 | 91.2 |  |
| O=c1ccc2cc([N+](=O)[O-])ccc2o1 | > 646 | 363 |  |
| CN(C)c1ccc(C=C2c3ccccc3-c3ccccc32)cc1 | > 17.4 | > 17.4 |  |
